Reference: patent US20240150293A1, “SPIROCYCLOHEXANE DERIVATIVES, PHARMACEUTICAL COMPOSITIONS CONTAINING THEM AND THEIR USES AS ANTI-APOPTOTIC INHIBITORS” (LES LABORATOIRES SERVIER, priority 2021, published 2024)
Read-outs that look alike come from different tables or passages of the source.

Columns and labels:
[1] = target: Cy5-labelled Mcl1 (amino acids 171-321) C286S protein (UniProtKB Q07820) (Homo sapiens (Human), UniProt Q07820, C286S); experiment: Inhibition of Mcl-1 by the fluorescence quenching assay (Example A, Method B); type: binding
In short: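 Cy5-labelled Mcl1 171-321 C286S (1 nM) quenched by TQ5WS-labelled PUMA peptide (10, 20 or 400 nM); displacement raises fluorescence (Ex 620/Em 680 nm). Buffer 10 mM HEPES, 150 mM NaCl, 0.05% Tween 20, pH 7.4, 5% DMSO; 2 h at room temperature, 11-point curves, IC50 converted to Ki (cKi/eKi).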

NCI-H929 cell lines = experiment: In vitro cytotoxicity, CellTiter-Glo (CTG) assay (Example B, Method B); type: cell-based; conditions: NCI-H929 cells, 48 h incubation, read-out: C50
In short: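 NCI-H929 cells exposed to an 11-point compound series from 10 mM DMSO stocks (top final 30 μM) for 48 h at 37° C., 5% CO2. Viability measured as ATP by CellTiter-Glo luminescence; C50 is the concentration giving 50% cellular viability.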

Chain of Cy5-labelled Mcl1 (amino acids 171-321) C286S protein (Q07820 171-321 C286S): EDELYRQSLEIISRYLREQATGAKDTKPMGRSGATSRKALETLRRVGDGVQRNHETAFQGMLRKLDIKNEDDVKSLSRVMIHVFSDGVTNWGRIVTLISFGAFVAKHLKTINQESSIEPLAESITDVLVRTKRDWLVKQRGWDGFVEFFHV

Which Ki [1] does the source give for `CCOc1ccc2c(c1)[C@]1(CC[C@@](Nc3ccc(F)c(Cl)c3)(C(=O)O)CC1)[C@@H](C[C@@H](C)COc1ccnc3c1[C@H](C)CCC3)C2` [Example 785, (1r,2′S,4S)-4-(3-chloro-4-fluoroanilino)-6′-ethoxy-2′-[(2R)-2-methyl-3-{[(5R)-5-methyl-5,6,7,8-tetrahydroquinolin-4-yl]oxy}propyl]-2′,3′-dihydrospiro[cyclohexane-1,1′-indene]-4-carboxylic acid] here?
Its Ki is 0.122 nM.

And the IC50 (NCI-H929 cell lines; Homo sapiens, NCI-H929, 48 h)?
The IC50 was 61 nM.

With `COc1cccc(-c2ccc3c(c2)[C@]2(CC[C@@](Nc4cccc(Cl)c4)(C(=O)O)CC2)[C@@H](C[C@@H](C)COc2ccnc4c2[C@H](C)CCC4)C3)c1` [Example 877, (1r,2′S,4S)-4-(3-chloroanilino)-6′-(3-methoxyphenyl)-2′-[(2R)-2-methyl-3-{[(5R)-5-methyl-5,6,7,8-tetrahydroquinolin-4-yl]oxy}propyl]-2′,3′-dihydrospiro[cyclohexane-1,1′-indene]-4-carboxylic acid] as the molecule, how does the Ki [1] read?
The Ki was 0.642 nM.

And the IC50 (NCI-H929 cell lines; Homo sapiens, NCI-H929, 48 h)?
The IC50 was 505 nM.

What does the source list for `C[C@@H](COc1ccnc2c1[C@H](C)CCC2)CC1=Cc2c(Cl)c(Cl)ccc2[C@]12CC[C@@](Nc1cccc(Cl)c1)(C(=O)O)CC2` [Example 750, (1r,4R)-4′,5′-dichloro-4-(3-chloroanilino)-2′-[(2R)-2-methyl-3-{[(5R)-5-methyl-5,6,7,8-tetrahydroquinolin-4-yl]oxy}propyl]spiro[cyclohexane-1,1′-indene]-4-carboxylic acid]?
Ki [1]: 1.06 nM; IC50 (NCI-H929 cell lines; Homo sapiens, NCI-H929, 48 h): 378 nM

`CC(C)OC(=O)OC(C)OC(=O)[C@]1(Nc2cccc(Cl)c2)CC[C@@]2(CC1)c1cc3c(cc1C[C@@H]2C[C@@H](C)COc1ccnc2c1[C@H](C)CCC2)OCO3` (stereo partly drawn) [Example 944, 1-({[(propan-2-yl)oxy]carbonyl}oxy)ethyl (1r,4S,6′S)-4-(3-chloroanilino)-6′-[(2R)-2-methyl-3-{[(5R)-5-methyl-5,6,7,8-tetrahydroquinolin-4-yl]oxy}propyl]-6′,7′-dihydro-2′H-spiro[cyclohexane-1,5′-indeno[5,6-d][1,3]dioxole]-4-carboxylate] was tested. Which inhibition at 1 µM ([1]; @ 1 μM, read-out: Mcl-1 inhibition, % at a single concentration) did it give?
The inhibition at 1 µM was 13.9%.

What about the IC50 (NCI-H929 cell lines; Homo sapiens, NCI-H929, 48 h) of the same molecule?
Its IC50 is 2130 nM.

For `C[C@@H](COc1ccnc2c1[C@H](C)CCC2)CC1Cc2c(Cl)c(Cl)ccc2[C@]12CC[C@@](Nc1cccc(Cl)c1)(C(=O)O)CC2` (single isomer, unassigned) [Example 751], which Ki [1] is on record?
Its Ki is 0.644 nM.

And the IC50 (NCI-H929 cell lines; Homo sapiens, NCI-H929, 48 h)?
Its IC50 is 279 nM.

What does the source list for `C[C@@H](COc1ccnc2c1[C@H](C)CCC2)C[C@H]1Cc2cc3c(cc2[C@]12CC[C@@](Nc1cccc(Cl)c1)(C(=O)OCOP(=O)(O)O)CC2)OCO3` [Example 952, (phosphonooxy)methyl (1r,4S,6′S)-4-(3-chloroanilino)-6′-[(2R)-2-methyl-3-{[(5R)-5-methyl-5,6,7,8-tetrahydroquinolin-4-yl]oxy}propyl]-6′,7′-dihydro-2′H-spiro[cyclohexane-1,5′-indeno[5,6-d][1,3]dioxole]-4-carboxylate]?
Ki [1]: 0.371 nM; IC50 (NCI-H929 cell lines; Homo sapiens, NCI-H929, 48 h): 96 nM

What does the source list for `C[C@@H](COc1ccnc2c1[C@H](C)CCC2)C[C@H]1Cc2cc3c(cc2[C@]12CC[C@@](Nc1cccc(Cl)c1)(C(=O)O)CC2)OCC[C@@H](C)O3` [Example 986, (1r,2′R,4S,8′S)-4-(3-chloroanilino)-2′-methyl-8′-[(2R)-2-methyl-3-{[(5R)-5-methyl-5,6,7,8-tetrahydroquinolin-4-yl]oxy}propyl]-3′,4′,8′,9′-tetrahydro-2′H-spiro[cyclohexane-1,7′-indeno[5,6-b][1,4]dioxepine]-4-carboxylic acid]?
Ki [1]: 0.0342 nM; IC50 (NCI-H929 cell lines; Homo sapiens, NCI-H929, 48 h): 86.9 nM

Which results are given for `CC(c1ccc(O)cc1)c1ccc2c(c1)[C@]1(CC[C@@](Nc3cccc(Cl)c3)(C(=O)O)CC1)[C@@H](C[C@@H](C)COc1ccnc3c1[C@H](C)CCC3)C2` (stereo partly drawn) [Example 885, (1r,2′S,4S)-4-(3-chloroanilino)-6′-[1-(4-hydroxyphenyl)ethyl]-2′-[(2R)-2-methyl-3-{[(5R)-5-methyl-5,6,7,8-tetrahydroquinolin-4-yl]oxy}propyl]-2′,3′-dihydrospiro[cyclohexane-1,1′-indene]-4-carboxylic acid]?
Ki [1]: 2.03 nM; IC50 (NCI-H929 cell lines; Homo sapiens, NCI-H929, 48 h): 341 nM

With `COc1cc2c(cc1OC)[C@]1(CC[C@@](Nc3cccc(Cl)c3)(C(=O)O)CC1)[C@@H](C[C@@H](C)COc1ccnc3c1[C@H](C)CCC3)C2` [Example 835, (1r,2′S,4S)-4-(3-chloroanilino)-5′,6′-dimethoxy-2′-[(2R)-2-methyl-3-{[(5R)-5-methyl-5,6,7,8-tetrahydroquinolin-4-yl]oxy}propyl]-2′,3′-dihydrospiro[cyclohexane-1,1′-indene]-4-carboxylic acid] as the molecule, how does the Ki [1] read?
Its Ki is 0.438 nM.

What about the IC50 (NCI-H929 cell lines; Homo sapiens, NCI-H929, 48 h) of the same molecule?
The IC50 was 146 nM.

Which results are given for `COC(=O)OC(C)OC(=O)[C@]1(Nc2cccc(Cl)c2)CC[C@@]2(CC1)c1cc3c(cc1C[C@@H]2C[C@@H](C)COc1ccnc2c1[C@H](C)CCC2)OCO3` (stereo partly drawn) [Example 943, 1-[(methoxycarbonyl)oxy]ethyl (1r,4S,6′S)-4-(3-chloroanilino)-6′-[(2R)-2-methyl-3-{[(5R)-5-methyl-5,6,7,8-tetrahydroquinolin-4-yl]oxy}propyl]-6′,7′-dihydro-2′H-spiro[cyclohexane-1,5′-indeno[5,6-d][1,3]dioxole]-4-carboxylate]?
Ki [1]: 1 nM; IC50 (NCI-H929 cell lines; Homo sapiens, NCI-H929, 48 h): 228 nM

`CCCOc1ccc2c(c1)[C@]1(CC[C@@](Nc3cccc(Cl)c3)(C(=O)O)CC1)[C@@H](C[C@@H](C)COc1ccnc3c1[C@H](C)CCC3)C2` [Example 787, (1r,2′S,4S)-4-(3-chloroanilino)-2′-[(2R)-2-methyl-3-{[(5R)-5-methyl-5,6,7,8-tetrahydroquinolin-4-yl]oxy}propyl]-6′-propoxy-2′,3′-dihydrospiro[cyclohexane-1,1′-indene]-4-carboxylic acid] was tested. Which Ki [1] did it give?
The Ki was 0.0573 nM.

And the IC50 (NCI-H929 cell lines; Homo sapiens, NCI-H929, 48 h)?
Its IC50 is 103 nM.

For `C[C@@H](COc1ccnc2c1[C@H](C)CCC2)C[C@@H]1Cc2ccc(-c3cc[nH]c3)cc2[C@]12CC[C@@](Nc1cccc(Cl)c1)(C(=O)O)CC2` [Example 882, (1r,2′R,4R)-4-(3-chloroanilino)-2′-[(2R)-2-methyl-3-{[(5R)-5-methyl-5,6,7,8-tetrahydroquinolin-4-yl]oxy}propyl]-6′-(1H-pyrrol-3-yl)-2′,3′-dihydrospiro[cyclohexane-1,1′-indene]-4-carboxylic acid], which Ki [1] is on record?
The Ki was 1.84 nM.

And the IC50 (NCI-H929 cell lines; Homo sapiens, NCI-H929, 48 h)?
Its IC50 is 1300 nM.

What does the source list for `Cc1c(Cl)cccc1N[C@]1(C(=O)O)CC[C@]2(CC1)c1cc3c(cc1CN2C[C@@H](C)COc1ccnc2c1[C@H](C)CCC2)OCO3` [Example 49, (1s,4S)-4-(3-chloro-2-methylanilino)-6′-[(2R)-2-methyl-3-{[(5R)-5-methyl-5,6,7,8-tetrahydroquinolin-4-yl]oxy}propyl]-6′,7′-dihydro-2′H-spiro[cyclohexane-1,5′-[1,3]dioxolo[4,5-f]isoindole]-4-carboxylic acid]?
Ki ([1]; Ki determined from IC50): 0.31 nM; IC50 (NCI-H929 cell lines; Homo sapiens, NCI-H929, 48 h): 242 nM

Which results are given for `C[C@@H](COc1ccnc2c1[C@H](C)CCC2)C[C@H]1Cc2cc(Cl)ccc2[C@]12CC[C@@](Nc1cccc(Cl)c1)(C(=O)O)CC2` [Example 778, (1r,2′S,4S)-5′-chloro-4-(3-chloroanilino)-2′-[(2R)-2-methyl-3-{[(5R)-5-methyl-5,6,7,8-tetrahydroquinolin-4-yl]oxy}propyl]-2′,3′-dihydrospiro[cyclohexane-1,1′-indene]-4-carboxylic acid]?
Ki [1]: 0.177 nM; IC50 (NCI-H929 cell lines; Homo sapiens, NCI-H929, 48 h): 67.2 nM

Which results are given for `CCOc1cc2c(cc1Cl)C[C@H](C[C@@H](C)COc1ccnc3c1[C@H](C)CCC3)[C@]21CC[C@](Nc2cccc(Cl)c2)(C(=O)O)CC1` [Example 816, (1r,2′S,4S)-5′-chloro-4-(3-chloroanilino)-6′-ethoxy-2′-[(2R)-2-methyl-3-{[(5R)-5-methyl-5,6,7,8-tetrahydroquinolin-4-yl]oxy}propyl]-2′,3′-dihydrospiro[cyclohexane-1,1′-indene]-4-carboxylic acid]?
Ki [1]: 0.353 nM; IC50 (NCI-H929 cell lines; Homo sapiens, NCI-H929, 48 h): 101 nM

Which results are given for `C[C@@H](COc1ccnc2c1[C@H](C)CCC2)C[C@H]1Cc2cc3c(cc2[C@]12CC[C@@](Nc1cccc(Cl)c1)(C(=O)O)CC2)OC(F)(F)O3` [Example 849, (1r,4S,6′S)-4-(3-chloroanilino)-2′,2′-difluoro-6′-[(2R)-2-methyl-3-{[(5R)-5-methyl-5,6,7,8-tetrahydroquinolin-4-yl]oxy}propyl]-6′,7′-dihydro-2′H-spiro[cyclohexane-1,5′-indeno[5,6-d][1,3]dioxole]-4-carboxylic acid]?
Ki [1]: 0.228 nM; IC50 (NCI-H929 cell lines; Homo sapiens, NCI-H929, 48 h): 90.5 nM

With `CCC1Oc2cc3c(cc2O1)[C@]1(CC[C@@](Nc2cccc(Cl)c2)(C(=O)O)CC1)[C@@H](C[C@@H](C)COc1ccnc2c1[C@H](C)CCC2)C3` (single isomer, unassigned) [Example 968] as the molecule, how does the Ki [1] read?
The Ki was 0.0405 nM.

And the IC50 (NCI-H929 cell lines)?
Its IC50 is 72.7 nM.

Which results are given for `C[C@@H]1CCCc2nccc(OC[C@@H](C[C@H]3Cc4ccccc4[C@]34CC[C@@](Nc3cccc(Cl)c3)(C(=O)O)CC4)c3ccccc3)c21` [Example 797, (1r,2′S,4S)-4-(3-chloroanilino)-2′-[(2S)-3-{[(5R)-5-methyl-5,6,7,8-tetrahydroquinolin-4-yl]oxy}-2-phenylpropyl]-2′,3′-dihydrospiro[cyclohexane-1,1′-indene]-4-carboxylic acid]?
Ki [1]: 0.259 nM; IC50 (NCI-H929 cell lines; Homo sapiens, NCI-H929, 48 h): 251 nM

With `C[C@@H](COc1ccnc2c1[C@H](C)CC[C@H]2O)C[C@H]1Cc2cc3c(cc2[C@]12CC[C@@](Nc1cccc(Cl)c1)(C(=O)O)CC2)OCCO3` [Example 962, (1r,4S,7′S)-4-(3-chloroanilino)-7′-[(2R)-3-{[(5R,8R)-8-hydroxy-5-methyl-5,6,7,8-tetrahydroquinolin-4-yl]oxy}-2-methylpropyl]-2′,3′,7′,8′-tetrahydrospiro[cyclohexane-1,6′-indeno[5,6-b][1,4]dioxine]-4-carboxylic acid] as the molecule, how does the Ki [1] read?
Its Ki is 0.0109 nM.

What about the IC50 (NCI-H929 cell lines; Homo sapiens, NCI-H929, 48 h) of the same molecule?
Its IC50 is 42.8 nM.
